Test results from ChEMBL document CHEMBL3045955, “Design, synthesis and structure-activity relationship of novel insecticidal dichloro-allyloxy-phenol derivatives containing substituted pyrazol-3-ols” (2013).

Key:
Assay type in all cases: functional
Settings in all cases: 72 h
Plutella xylostella [1] = test: Insecticidal activity against third-instar larvae of Plutella xylostella (diamondback moth) fed on compound treated cabbage leaves assessed as mortality at 6.25 mg/l after 3 days relative to control
Plutella xylostella [2] = test: Insecticidal activity against third-instar larvae of Plutella xylostella (diamondback moth) fed on compound treated cabbage leaves assessed as mortality at 100 mg/l after 3 days relative to control
Plutella xylostella [3] = test: Insecticidal activity against third-instar larvae of Plutella xylostella (diamondback moth) fed on compound treated cabbage leaves assessed as mortality at 25 mg/l after 3 days relative to control

COc1ccc(-c2c(C)c(OCCCOc3c(Cl)cc(OCC=C(Cl)Cl)cc3Cl)nn2C)cc1
mortality at 6.25 µg/mL (Plutella xylostella [1]): 10% | mortality at 100 µg/mL (Plutella xylostella [2]): 100% | mortality at 25 µg/mL (Plutella xylostella [3]): 40%

Cc1c(OCCCOc2c(Cl)cc(OCC=C(Cl)Cl)cc2Cl)nn(C)c1-c1ccccc1
mortality at 6.25 µg/mL (Plutella xylostella [1]): 0% | mortality at 100 µg/mL (Plutella xylostella [2]): 100% | mortality at 25 µg/mL (Plutella xylostella [3]): 30%

Cc1c(OCCCOc2c(Cl)cc(OCC=C(Cl)Cl)cc2Cl)nn(C)c1-c1ccc(F)cc1
mortality at 6.25 µg/mL (Plutella xylostella [1]): 30% | mortality at 100 µg/mL (Plutella xylostella [2]): 100% | mortality at 25 µg/mL (Plutella xylostella [3]): 80%

Cc1ccc(-c2c(C)c(OCCOc3c(Cl)cc(OCC=C(Cl)Cl)cc3Cl)nn2C)cc1
mortality at 6.25 µg/mL (Plutella xylostella [1]): 0% | mortality at 100 µg/mL (Plutella xylostella [2]): 17% | mortality at 25 µg/mL (Plutella xylostella [3]): 0%

Cc1ccc(-c2cc(OCCCOc3c(Cl)cc(OCC=C(Cl)Cl)cc3Cl)nn2C)cc1C
mortality at 6.25 µg/mL (Plutella xylostella [1]): 0% | mortality at 100 µg/mL (Plutella xylostella [2]): 80% | mortality at 25 µg/mL (Plutella xylostella [3]): 50%

Cc1c(OCCCOc2c(Cl)cc(OCC=C(Cl)Cl)cc2Cl)nn(C)c1-c1ccc(C(C)C)cc1
mortality at 6.25 µg/mL (Plutella xylostella [1]): 85% | mortality at 100 µg/mL (Plutella xylostella [2]): 100% | mortality at 25 µg/mL (Plutella xylostella [3]): 100%

Cc1ccc(C)c(-c2c(C)c(OCCCOc3c(Cl)cc(OCC=C(Cl)Cl)cc3Cl)nn2C)c1
mortality at 6.25 µg/mL (Plutella xylostella [1]): 37% | mortality at 100 µg/mL (Plutella xylostella [2]): 75% | mortality at 25 µg/mL (Plutella xylostella [3]): 67%

CCOc1ccc(-c2c(C)c(OCCCOc3c(Cl)cc(OCC=C(Cl)Cl)cc3Cl)nn2C)cc1
mortality at 6.25 µg/mL (Plutella xylostella [1]): 10% | mortality at 100 µg/mL (Plutella xylostella [2]): 100% | mortality at 25 µg/mL (Plutella xylostella [3]): 20%

Cc1ccc(-c2c(C)c(OCCCCOc3c(Cl)cc(OCC=C(Cl)Cl)cc3Cl)nn2C)cc1
mortality at 6.25 µg/mL (Plutella xylostella [1]): 42% | mortality at 100 µg/mL (Plutella xylostella [2]): 100% | mortality at 25 µg/mL (Plutella xylostella [3]): 50%

Cc1ccccc1-c1cc(OCCCOc2c(Cl)cc(OCC=C(Cl)Cl)cc2Cl)nn1C
mortality at 6.25 µg/mL (Plutella xylostella [1]): 40% | mortality at 100 µg/mL (Plutella xylostella [2]): 100% | mortality at 25 µg/mL (Plutella xylostella [3]): 70%

Cc1c(OCCCOc2c(Cl)cc(OCC=C(Cl)Cl)cc2Cl)nn(C)c1-c1ccc(Cl)c(Cl)c1
mortality at 6.25 µg/mL (Plutella xylostella [1]): 50% | mortality at 100 µg/mL (Plutella xylostella [2]): 100% | mortality at 25 µg/mL (Plutella xylostella [3]): 75%

Cc1c(OCCCOc2c(Cl)cc(OCC=C(Cl)Cl)cc2Cl)nn(C)c1-c1ccc(C(C)(C)C)cc1
mortality at 6.25 µg/mL (Plutella xylostella [1]): 30% | mortality at 100 µg/mL (Plutella xylostella [2]): 100% | mortality at 25 µg/mL (Plutella xylostella [3]): 87%

CCc1ccc(-c2c(C)c(OCCCCOc3c(Cl)cc(OCC=C(Cl)Cl)cc3Cl)nn2C)cc1
mortality at 6.25 µg/mL (Plutella xylostella [1]): 10% | mortality at 100 µg/mL (Plutella xylostella [2]): 100% | mortality at 25 µg/mL (Plutella xylostella [3]): 50%

Cn1nc(OCCCOc2c(Cl)cc(OCC=C(Cl)Cl)cc2Cl)cc1-c1ccc(Cl)cc1Cl
mortality at 6.25 µg/mL (Plutella xylostella [1]): 0% | mortality at 100 µg/mL (Plutella xylostella [2]): 100% | mortality at 25 µg/mL (Plutella xylostella [3]): 80%

CCc1ccc(-c2c(C)c(OCCCOc3c(Cl)cc(OCC=C(Cl)Cl)cc3Cl)nn2C)cc1
mortality at 6.25 µg/mL (Plutella xylostella [1]): 60% | mortality at 100 µg/mL (Plutella xylostella [2]): 100% | mortality at 25 µg/mL (Plutella xylostella [3]): 77%

Cc1ccc(-c2cc(OCCCOc3c(Cl)cc(OCC=C(Cl)Cl)cc3Cl)nn2C)c(C)c1
mortality at 6.25 µg/mL (Plutella xylostella [1]): 30% | mortality at 100 µg/mL (Plutella xylostella [2]): 90% | mortality at 25 µg/mL (Plutella xylostella [3]): 50%

Cn1nc(OCCCOc2c(Cl)cc(OCC=C(Cl)Cl)cc2Cl)cc1-c1ccc(Cl)cc1
mortality at 6.25 µg/mL (Plutella xylostella [1]): 65% | mortality at 100 µg/mL (Plutella xylostella [2]): 100% | mortality at 25 µg/mL (Plutella xylostella [3]): 100%

Cc1ccc(-c2c(C)c(OCCCOc3c(Cl)cc(OCC=C(Cl)Cl)cc3Cl)nn2C)cc1C
mortality at 6.25 µg/mL (Plutella xylostella [1]): 87% | mortality at 100 µg/mL (Plutella xylostella [2]): 100% | mortality at 25 µg/mL (Plutella xylostella [3]): 100%

CCc1ccc(-c2c(C)c(OCCOc3c(Cl)cc(OCC=C(Cl)Cl)cc3Cl)nn2C)cc1
mortality at 6.25 µg/mL (Plutella xylostella [1]): 0% | mortality at 100 µg/mL (Plutella xylostella [2]): 67% | mortality at 25 µg/mL (Plutella xylostella [3]): 33%

Cc1c(OCCCOc2c(Cl)cc(OCC=C(Cl)Cl)cc2Cl)nn(C)c1-c1ccc(Cl)cc1
mortality at 6.25 µg/mL (Plutella xylostella [1]): 20% | mortality at 100 µg/mL (Plutella xylostella [2]): 80% | mortality at 25 µg/mL (Plutella xylostella [3]): 50%

FC(F)(F)c1ccc(OCCCOc2c(Cl)cc(OCC=C(Cl)Cl)cc2Cl)nc1 [PYRIDALYL]
mortality at 6.25 µg/mL (Plutella xylostella [1]): 65% | mortality at 100 µg/mL (Plutella xylostella [2]): 100% | mortality at 25 µg/mL (Plutella xylostella [3]): 100%

Cc1ccc(-c2c(C)c(OCCCOc3c(Cl)cc(OCC=C(Cl)Cl)cc3Cl)nn2C)cc1
mortality at 6.25 µg/mL (Plutella xylostella [1]): 95% | mortality at 100 µg/mL (Plutella xylostella [2]): 100% | mortality at 25 µg/mL (Plutella xylostella [3]): 100%

Cc1c(OCCCOc2c(Cl)cc(OCC=C(Cl)Cl)cc2Cl)nn(C)c1-c1ccc(Cl)cc1Cl
mortality at 6.25 µg/mL (Plutella xylostella [1]): 67% | mortality at 100 µg/mL (Plutella xylostella [2]): 85% | mortality at 25 µg/mL (Plutella xylostella [3]): 80%

Cc1ccc(-c2c(C)c(OCCCOc3c(Cl)cc(OCC=C(Cl)Cl)cc3Cl)nn2C)c(C)c1
mortality at 6.25 µg/mL (Plutella xylostella [1]): 30% | mortality at 100 µg/mL (Plutella xylostella [2]): 90% | mortality at 25 µg/mL (Plutella xylostella [3]): 60%

Cn1nc(OCCCOc2c(Cl)cc(OCC=C(Cl)Cl)cc2Cl)cc1-c1ccccc1
mortality at 6.25 µg/mL (Plutella xylostella [1]): 75% | mortality at 100 µg/mL (Plutella xylostella [2]): 100% | mortality at 25 µg/mL (Plutella xylostella [3]): 100%

CCc1ccc(-c2cc(OCCCOc3c(Cl)cc(OCC=C(Cl)Cl)cc3Cl)nn2C)cc1
mortality at 6.25 µg/mL (Plutella xylostella [1]): 30% | mortality at 100 µg/mL (Plutella xylostella [2]): 70% | mortality at 25 µg/mL (Plutella xylostella [3]): 40%
